From ChEMBL document CHEMBL1134219, “Gamma-lactone-Functionalized antitumoral acetogenins are the most potent inhibitors of mitochondrial complex I” (Bioorg Med Chem Lett, 2001)

Columns and labels:
Bos taurus [1] = species: Bos taurus; assay: Relative NADH oxidase activity compared to Laherradurin and 36-dihydroisorolliniastatin-1; format: functional
Bos taurus [2] = species: Bos taurus; assay: Inhibition of NADH-ubiquinone oxidoreductase using decylubiquinone (DB) acceptor; format: functional
Bos taurus [3] = species: Bos taurus; assay: Relative inhibition of NADH-ubiquinone oxidoreductase (DB) and NADH oxidase activity; format: functional
[4] = target: Mitochondrial complex I; NADH oxidoreductase (Bos taurus, UniProt P25708+P52505); assay: Inhibition of NADH oxidase activity in sub-mitochondrial particles from bovine heart; format: functional
[5] = Potency relative to NADH oxidase activity of Laherradurin
[6] = Potency relative to NADH oxidase activity of and 36-dihydroisorolliniastatin-1

Sequence of Mitochondrial complex I; NADH oxidoreductase (P25708 21-464 limits assumed, other chains not shown): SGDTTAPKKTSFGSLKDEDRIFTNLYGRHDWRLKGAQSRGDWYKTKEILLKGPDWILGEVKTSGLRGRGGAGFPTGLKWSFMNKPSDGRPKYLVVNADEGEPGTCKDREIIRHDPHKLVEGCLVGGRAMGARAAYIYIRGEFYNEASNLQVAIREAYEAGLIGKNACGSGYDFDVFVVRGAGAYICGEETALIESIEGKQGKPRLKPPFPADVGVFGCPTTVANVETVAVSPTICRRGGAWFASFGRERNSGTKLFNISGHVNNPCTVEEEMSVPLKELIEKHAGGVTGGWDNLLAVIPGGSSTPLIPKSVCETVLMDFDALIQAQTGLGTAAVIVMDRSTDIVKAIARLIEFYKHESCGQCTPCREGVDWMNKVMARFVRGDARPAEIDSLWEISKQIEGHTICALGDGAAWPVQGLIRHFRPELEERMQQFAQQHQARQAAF

SMILES | Relative potency (Bos taurus [1]) | IC50 (Bos taurus [2]) [nM] | Ratio (Bos taurus [3]) | IC50 [4] [nM] | Relative potency [5] | Relative potency [6]
CCCCCCCCCC[C@@H](O)[C@@H]1CC[C@@H]([C@@H](O)CC[C@H](O)[C@@H]2CC[C@@H](CCCCCCC[C@H]3CC(C/C(C)=N/O)C(=O)O3)O2)O1 (stereo not given in full) | 3 | 1.42 | 2.6 | 0.54 | – | –
CCCCCCCCCC[C@@H](O)[C@@H]1CC[C@@H]([C@@H](O)CC[C@H](O)[C@@H]2CC[C@@H](CCCCCCC[C@H]3CC(CC(C)=O)C(=O)O3)O2)O1 (stereo not given in full) | 4.6 | 2.88 | 3.5 | 0.83 | – | –
CCCCCCCCCC[C@H](O)[C@H]1CC[C@@H]([C@@H]2CC[C@H]([C@H](O)CCCCCCCCCC[C@@H](O)CC3=C[C@H](C)OC3=O)O2)O1 [rolliniastatin-1] | 3.3 | 0.74 | 1.2 | – | – | –
CCCCCCCCCC[C@H](O)[C@H]1CC[C@@H]([C@@H]2CC[C@H]([C@H](O)CCCCCCCCCC[C@H]3CC(CC(C)=O)C(=O)O3)O2)O1 (stereo not given in full) | 1.8 | 1.21 | 3.7 | 0.33 | – | –
CCCCCCCCCC[C@H](O)[C@H]1CC[C@@H]([C@@H]2CC[C@H]([C@H](O)CCCCCCCCCC[C@H]3CC(CC(C)O)C(=O)O3)O2)O1 (stereo not given in full) | – | 0.21 | 1.2 | 0.18 | 1 | –
CCCCCCCCCC[C@H](O)[C@H]1CC[C@H]([C@H]2CC[C@H]([C@H](O)CCCCCCCCCCC3C(=O)O[C@@H](C)[C@@H]3O)O2)O1 (stereo not given in full) | 1.2 | 0.72 | 3.4 | 0.21 | – | –
CCCCCCCCCC[C@@H](O)[C@@H]1CC[C@@H]([C@@H](O)CC[C@H](O)[C@@H]2CC[C@@H](CCCCCCC[C@@H](O)CC3(O)C(=O)O[C@H](C)[C@H]3O)O2)O1 (single isomer, unassigned) | 47.1 | 38.3 | 4.6 | 8.47 | – | –
CCCCCCCCCC[C@H](O)[C@H]1CC[C@H]([C@H]2CC[C@H]([C@H](O)CCCCCCCCCCCCC3C(=O)O[C@@H](C)[C@@H]3O)O2)O1 (stereo not given in full) [LAHERRADURIN] | – | 0.29 | 1.6 | 0.18 | – | 1
CCCCCCCCCC[C@@H](O)[C@@H]1CC[C@@H]([C@@H](O)CC[C@H](O)[C@@H]2CC[C@@H](CCCCCCC[C@H]3CC(CC(C)O)C(=O)O3)O2)O1 (stereo not given in full) | 13.8 | 4.64 | 1.9 | 2.48 | – | –
CCCCCCCCCC[C@H](O)[C@H]1CC[C@@H]([C@@H]2CC[C@H]([C@H](O)CCCCCCCCCC[C@H]3CC(C/C(C)=N/O)C(=O)O3)O2)O1 (stereo not given in full) | 1.3 | 0.22 | 1 | 0.23 | – | –
CCCCCCCCCC[C@H](O)[C@H]1CC[C@@H]([C@@H]2CC[C@H]([C@H](O)CCCCCCCCCC[C@@H](O)CC3C[C@H](C)OC3=O)O2)O1 (stereo not given in full) | 2.4 | 0.57 | 1.3 | 0.43 | – | –
CCCCCCCCCC[C@@H](O)[C@@H]1CC[C@@H]([C@@H](O)CC[C@H](O)[C@@H]2CC[C@@H](CCCCCCC[C@@H](O)CC3=C[C@H](C)OC3=O)O2)O1 | 10.2 | 5.18 | 2.8 | 1.84 | – | –
CCCCCCCCCC[C@H](O)[C@H]1CC[C@@H]([C@@H]2CC[C@H]([C@H](O)CCCCCCCCCC[C@@H](O)CC3(O)C(=O)O[C@@H](C)[C@H]3O)O2)O1 (single isomer, unassigned) | 1.2 | 0.56 | 2.7 | 0.21 | – | –
CCCCCCCCCC[C@@H](O)[C@@H]1CC[C@@H]([C@@H](O)CC[C@H](O)[C@@H]2CC[C@@H](CCCCCCC[C@@H](O)CC3C[C@H](C)OC3=O)O2)O1 (stereo not given in full) | 6.8 | 3.32 | 2.7 | 1.22 | – | –
